Columns and labels:
A673 cells = test: Cell viability and proliferation, A673 cells (crystal violet); format: cell-based; details: cell proliferation IC50 in NHDF cells over A673 cells, 72 h
Description: Small molecule splicing modulators were tested in a dose-response assay using A673 cells and NHDF cells.
A673 cells or NHDF cells were first plated in 96-well plastic tissue culture plates (10,000 cells per well). The cells were treated with vehicle alone (DMSO), or increasing concentrations of SMSM compounds for 72 h. Following treatment, cell proliferation was determined using a crystal violet assay. The relative cell proliferation at each concentration was determined.

A375 xenografts = A375 xenografts in nude mice, tumor growth inhibition; format: in vivo
Description: (§1) Studies were performed to assess the effects of in vivo SMSM treatment on glioblastoma, breast, pancreatic, prostate, melanoma, lymphoma and Ewing sarcoma tumors. Studies were also performed to assess the effects of in vivo SMSM treatment on mRNA levels. Immunocompromised nude mice with pre-existing glioblastoma, breast, pancreatic, prostate, melanoma, lymphoma and Ewing sarcoma xenografts were treated with vehicle or SMSMs. Tumor tissues from subcutaneous xenografts were broken into a powder using a BioPulverizer (Biospec Products, Inc.). After SMSM treatment, mRNA was isolated from the xenografts and was analyzed by qRT-PCR.
(§2) Tumor size was measured 2 times per week in two dimensions using a caliper. Studies were terminated when the tumor size in the vehicle treated group reached 2,000 mm^3. Each mouse was bled at 2 hrs after the last dose and at least 50 μl of plasma was collected from each mouse. All of the collected plasma samples and retainer dosing solutions for each dose level were used for bioanalytical measurements. All tumors were also collected and weighed. One necrosis-free tumor fragment of approximately 50 mg was taken from each tumor and flash-frozen for RNA isolation. The remaining tumor was flash frozen for PK analysis.
(§3) The effects of in vivo SMSM treatments on pre-existing subcutaneous glioblastoma, breast, pancreatic, prostate, melanoma, lymphoma and Ewing sarcoma xenografts were assessed. For these in vivo experiments, 1×10^6Raji, A375, A673, MDA-MB-231, BxPC-3, PC-3 or U87 (cells re-suspended in 100 μl PBS were subcutaneously injected into the flanks of nude mice. When the tumor reached approximately 100 mm^3 (volume=(¾)(π)(length/2)(width/2)^2), the treatments indicated in the tables below were initiated.

A673 xenografts = A673 xenografts in nude mice, tumor growth inhibition; format: in vivo; details: A673 xenograft (FIGS. 16A-C), 1 mg/kg BID
Description: Dose range and time course studies comparing anti-neoplastic effects of SMSM−167 and SMSM−151 against vehicle were conducted.
Female NCrNu mice were used. Age range of enrolment was 7-10 weeks. A total of 75 animals were for the studies.
The A673 tumor cell line was maintained in vitro as a monolayer culture. […] The cells growing in an exponential growth phase were harvested and counted for tumor inoculation.
Each mouse were inoculated into a right flank with the single cell suspension of 95% viable tumor cells (5×10^6 cells/mouse) in serum-free RPMI 1640 Media for tumor development. Treatments were administered when mean tumor size reached approximately 75 mm^3.
Before commencement of treatment, all animals were weighed and assigned to treatment groups using a randomization procedure. Mice were randomized into groups based upon their tumor sizes to ensure that each group had approximately the same mean tumor size and range of tumor size.
After inoculation, the animals were checked daily for morbidity and mortality. At the time of routine monitoring, the animals were checked for any effects of tumor growth on normal behavior such as mobility, food and water consumption, body weight gain/loss, eye/hair matting and any other abnormal effects. Deaths and observed clinical signs were recorded.
Body weight were measured prior to tumor inoculation and prior to the treatment administration and then daily. Tumor size were measured 2-3 times per week in two dimensions using a caliper, and the volume were expressed in mm^3 using the formula: V=0.5×a×b^2 where a and b are the long and short diameters of the tumor, respectively.
as §2, with “Studies” for “Tumor size was measured 2 times per week in two dimensions using a caliper. Studies”, “plasma were” for “plasma was”
as §1, §2
as §3, with “initiated. […]” for “initiated.”

## O=C(/C=C/c1cccc(S(=O)(=O)Nc2ccccc2)c1)NO [Belinostat]
A673 cells
  Ratio NHDF/A673 IC50: ≤10

## Nc1ccccc1NC(=O)c1ccc(CNc2nccc(-c3cccnc3)n2)cc1 [Mocetinostat]
A673 cells
  Ratio NHDF/A673 IC50: ≤10

## Cc1[nH]c2ccccc2c1CCNCc1ccc(/C=C/C(=O)NO)cc1 [Panobinostat]
A673 cells
  Ratio NHDF/A673 IC50: ≤10

## CC(/C=C/C(=O)NO)=C\[C@@H](C)C(=O)c1ccc(N(C)C)cc1 [Trichostatin A]
A673 cells
  Ratio NHDF/A673 IC50: ≤10

## CCCS(=O)(=O)Nc1ccc(F)c(C(=O)c2c[nH]c3ncc(-c4ccc(Cl)cc4)cc23)c1F [Vemurafenib, vemurafenib, reference compound]
A375 xenografts; A375 xenograft (FIGS. 17A-B), 50 mg/kg p.o. BID, D4
  Tumor Growth Inhibition (TGI) (%): 9.47%
A375 xenografts; A375 xenograft (FIGS. 17A-B), 50 mg/kg p.o. BID, D6
  Tumor Growth Inhibition (TGI) (%): 9.98%
A375 xenografts; A375 xenograft (FIGS. 17A-B), 50 mg/kg p.o. BID, D10
  Tumor Growth Inhibition (TGI) (%): 24.32%
A375 xenografts; A375 xenograft (FIGS. 17A-B), 50 mg/kg p.o. BID, D13
  Tumor Growth Inhibition (TGI) (%): 50.53%
A375 xenografts; A375 xenograft (FIGS. 17A-B), 50 mg/kg p.o. BID, D17
  Tumor Growth Inhibition (TGI) (%): 69.66%
A375 xenografts; A375 xenograft (FIGS. 17A-B), 50 mg/kg p.o. BID, D21
  Tumor Growth Inhibition (TGI) (%): 82.03%
A375 xenografts; A-375 xenograft (FIGS. 21A-B), 50 mg/kg p.o. BID *21 days, D4
  Tumor Growth Inhibition (TGI) (%): 111.22%
A375 xenografts; A-375 xenograft (FIGS. 21A-B), 50 mg/kg p.o. BID *21 days, D7
  Tumor Growth Inhibition (TGI) (%): 112.77%
A375 xenografts; A-375 xenograft (FIGS. 21A-B), 50 mg/kg p.o. BID *21 days, D11
  Tumor Growth Inhibition (TGI) (%): 114.44%
A375 xenografts; A-375 xenograft (FIGS. 21A-B), 50 mg/kg p.o. BID *21 days, D14
  Tumor Growth Inhibition (TGI) (%): 109.55%
A375 xenografts; A-375 xenograft (FIGS. 21A-B), 50 mg/kg p.o. BID *21 days, D18
  Tumor Growth Inhibition (TGI) (%): 107.72%
A375 xenografts; A-375 xenograft (FIGS. 21A-B), 50 mg/kg p.o. BID *21 days, D21
  Tumor Growth Inhibition (TGI) (%): 106.56%

## CN(c1ccc(-c2ccc(-c3cn[nH]c3)cc2O)nn1)[C@@H]1C[C@H]2CCC[C@@H](C1)N2 [compound 160, 2-(6-(((1R,3s,5S)-9-azabicyclo[3.3.1]nonan-3-yl)(methyl)amino)pyridazin-3-yl)-5-(1H-pyrazol-4-yl)phenol]
A673 xenografts; Day 3
  Tumor Growth Inhibition (TGI) (%): −0.94%
A673 xenografts; Day 6
  Tumor Growth Inhibition (TGI) (%): 25.67%
A673 xenografts; Day 10
  Tumor Growth Inhibition (TGI) (%): 25.67%
A673 xenografts; Day 13
  Tumor Growth Inhibition (TGI) (%): 42.90%
A673 cells
  Ratio NHDF/A673 IC50: >225
A375 xenografts; A375 xenograft (FIGS. 17A-B), 3 mg/kg ip. BID, D4
  Tumor Growth Inhibition (TGI) (%): 33.09%
A375 xenografts; A375 xenograft (FIGS. 17A-B), 3 mg/kg ip. BID, D6
  Tumor Growth Inhibition (TGI) (%): 92.99%
A375 xenografts; A375 xenograft (FIGS. 17A-B), 3 mg/kg ip. BID, D10
  Tumor Growth Inhibition (TGI) (%): 109.59%
A375 xenografts; A375 xenograft (FIGS. 17A-B), 3 mg/kg ip. BID, D13
  Tumor Growth Inhibition (TGI) (%): 105.98%
A375 xenografts; A375 xenograft (FIGS. 17A-B), 3 mg/kg ip. BID, D17
  Tumor Growth Inhibition (TGI) (%): 99.59%
A375 xenografts; A375 xenograft (FIGS. 17A-B), 3 mg/kg ip. BID, D21
  Tumor Growth Inhibition (TGI) (%): 94.68%
A375 xenografts; A375 xenograft (FIGS. 17A-B), 3 mg/kg ip. QD, D4
  Tumor Growth Inhibition (TGI) (%): 3.40%
A375 xenografts; A375 xenograft (FIGS. 17A-B), 3 mg/kg ip. QD, D6
  Tumor Growth Inhibition (TGI) (%): 47.56%
A375 xenografts; A375 xenograft (FIGS. 17A-B), 3 mg/kg ip. QD, D10
  Tumor Growth Inhibition (TGI) (%): 44.13%
A375 xenografts; A375 xenograft (FIGS. 17A-B), 3 mg/kg ip. QD, D13
  Tumor Growth Inhibition (TGI) (%): 40.08%
A375 xenografts; A375 xenograft (FIGS. 17A-B), 3 mg/kg ip. QD, D17
  Tumor Growth Inhibition (TGI) (%): 45.12%
A375 xenografts; A375 xenograft (FIGS. 17A-B), 3 mg/kg ip. QD, D21
  Tumor Growth Inhibition (TGI) (%): 53.98%
A375 xenografts; A375 xenograft (FIGS. 17A-B), 10 mg/kg ip. QD*5day, D4
  Tumor Growth Inhibition (TGI) (%): 72.84%
A375 xenografts; A375 xenograft (FIGS. 17A-B), 10 mg/kg ip. QD*5day, D6
  Tumor Growth Inhibition (TGI) (%): 118.42%
A375 xenografts; A375 xenograft (FIGS. 17A-B), 10 mg/kg ip. QD*5day, D10
  Tumor Growth Inhibition (TGI) (%): 112.78%
A375 xenografts; A375 xenograft (FIGS. 17A-B), 10 mg/kg ip. QD*5day, D13
  Tumor Growth Inhibition (TGI) (%): 103.12%
A375 xenografts; A375 xenograft (FIGS. 17A-B), 10 mg/kg ip. QD*5day, D17
  Tumor Growth Inhibition (TGI) (%): 97.84%
A375 xenografts; A375 xenograft (FIGS. 17A-B), 10 mg/kg ip. QD*5day, D21
  Tumor Growth Inhibition (TGI) (%): 95.59%
A375 xenografts; A-375 xenograft (FIGS. 21A-B), 1.5 mg/kg i.p. BID *21 days, D4
  Tumor Growth Inhibition (TGI) (%): 3.60%
A375 xenografts; A-375 xenograft (FIGS. 21A-B), 1.5 mg/kg i.p. BID *21 days, D7
  Tumor Growth Inhibition (TGI) (%): 18.11%
A375 xenografts; A-375 xenograft (FIGS. 21A-B), 1.5 mg/kg i.p. BID *21 days, D11
  Tumor Growth Inhibition (TGI) (%): 30.05%
A375 xenografts; A-375 xenograft (FIGS. 21A-B), 1.5 mg/kg i.p. BID *21 days, D14
  Tumor Growth Inhibition (TGI) (%): 30.28%
A375 xenografts; A-375 xenograft (FIGS. 21A-B), 1.5 mg/kg i.p. BID *21 days, D18
  Tumor Growth Inhibition (TGI) (%): 42.80%
A375 xenografts; A-375 xenograft (FIGS. 21A-B), 1.5 mg/kg i.p. BID *21 days, D21
  Tumor Growth Inhibition (TGI) (%): 37.88%
A375 xenografts; A-375 xenograft (FIGS. 21A-B), 3 mg/kg i.p. BID *21 days, D4
  Tumor Growth Inhibition (TGI) (%): 38.68%
A375 xenografts; A-375 xenograft (FIGS. 21A-B), 3 mg/kg i.p. BID *21 days, D7
  Tumor Growth Inhibition (TGI) (%): 46.64%
A375 xenografts; A-375 xenograft (FIGS. 21A-B), 3 mg/kg i.p. BID *21 days, D11
  Tumor Growth Inhibition (TGI) (%): 94.46%
A375 xenografts; A-375 xenograft (FIGS. 21A-B), 3 mg/kg i.p. BID *21 days, D14
  Tumor Growth Inhibition (TGI) (%): 89.78%
A375 xenografts; A-375 xenograft (FIGS. 21A-B), 3 mg/kg i.p. BID *21 days, D18
  Tumor Growth Inhibition (TGI) (%): 81.80%
A375 xenografts; A-375 xenograft (FIGS. 21A-B), 3 mg/kg i.p. BID *21 days, D21
  Tumor Growth Inhibition (TGI) (%): 71.33%

## CN(c1ccc(-c2ccc(-c3ccn(C)c(=O)c3)cc2O)nn1)[C@H]1C[C@]2(C)CC[C@](C)(C1)N2 [compound 168, 4-(4-(6-(((1R,3s,5S)-1,5-dimethyl-8-azabicyclo[3.2.1]octan-3-yl)(methyl)amino)pyridazin-3-yl)-3-hydroxyphenyl)-1-methylpyridin-2(1H)-one]
A673 cells
  Ratio NHDF/A673 IC50: >500

— patent US11326165B1, “Methods and compositions for modulating splicing” (SKYHAWK THERAPEUTICS, INC., priority 2017, dated 2022)
